Results taken from ChEMBL document CHEMBL1201862, “PubChem BioAssay data set” (2004).
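Assay format: 96-well plates, 48-hour exposure. GI50: concentration for 50% inhibition of growth.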 Calls of active or inactive are those of the source. Rule as the data show it: active = GI50 up to about 1.1 µM and inactive = higher.

Assays:
Experiment in all cases: growth of human tumour cells (NCI), 48 h
CAKI-1 = tested on: CAKI-1
SNB-19 = tested on: SNB-19
COLO 205 = tested on: COLO 205
OVCAR-8 = tested on: OVCAR-8
SK-OV-3 = tested on: SK-OV-3
MDA-MB-435 = tested on: MDA-MB-435
SK-MEL-2 = tested on: SK-MEL-2
PC-3 = tested on: PC-3
MDA-N = tested on: MDA-N
SF-268 = tested on: SF-268
BT-549 = tested on: BT-549
HCT-116 = tested on: HCT-116
NCI-H23 = tested on: NCI-H23
SF-539 = tested on: SF-539
IGROV-1 = tested on: IGROV-1
U-251 = tested on: U-251
NCI-H522 = tested on: NCI-H522
HOP-92 = tested on: HOP-92
OVCAR-3 = tested on: OVCAR-3
MOLT-4 = tested on: MOLT-4
HOP-62 = tested on: HOP-62
EKVX = tested on: EKVX
SF-295 = tested on: SF-295
ACHN = tested on: ACHN
SW-620 = tested on: SW-620
OVCAR-4 = tested on: OVCAR-4
HL-60 = tested on: HL-60
MCF7 = tested on: MCF7
RPMI-8226 = tested on: RPMI-8226
CCRF-CEM = tested on: CCRF-CEM
M14 = tested on: M14
HCT-15 = tested on: HCT-15
A549 = tested on: A549
HT-29 = tested on: HT-29
786-0 = tested on: 786-0
KM12 = tested on: KM12
MDA-MB-231 = tested on: MDA-MB-231
Hs-578T = tested on: Hs-578T
TK-10 = tested on: TK-10
DU-145 = tested on: DU-145
NCI/ADR-RES = tested on: NCI/ADR-RES
SK-MEL-5 = tested on: SK-MEL-5
UACC-62 = tested on: UACC-62
A498 = tested on: A498
SR = tested on: SR
SN12C = tested on: SN12C
HCC 2998 = tested on: HCC 2998
RXF 393 = tested on: RXF 393
NCI-H460 = tested on: NCI-H460
K562 = tested on: K562
OVCAR-5 = tested on: OVCAR-5
UO-31 = tested on: UO-31
UACC-257 = tested on: UACC-257
Malme-3M = tested on: Malme-3M
NCI-H226 = tested on: NCI-H226
LOX IMVI = tested on: LOX IMVI
SK-MEL-28 = tested on: SK-MEL-28
SNB-75 = tested on: SNB-75

Measured: GI50

CC(C)(CN1CCCCC1)C(=O)CC(SCCS(=O)(=O)O)c1ccc(Cl)c(Cl)c1 (centres undefined)
2.07 µM: HCT-15
inactive: CAKI-1 2.97 µM | SNB-19 10.4 µM | COLO 205 2.58 µM | OVCAR-8 2.75 µM | SK-OV-3 29.7 µM | MDA-MB-435 2.21 µM | SK-MEL-2 24 µM | PC-3 4.94 µM | MDA-N 3.09 µM | SF-268 3.72 µM | BT-549 2.9 µM | HCT-116 2.59 µM | NCI-H23 3.72 µM | SF-539 2.65 µM | IGROV-1 4.4 µM | U-251 7.13 µM | NCI-H522 3.19 µM | HOP-92 1.76 µM | OVCAR-3 2.37 µM | MOLT-4 3.61 µM | HOP-62 6.47 µM | EKVX 6.59 µM | SF-295 3.25 µM | ACHN 3.29 µM | SW-620 2.22 µM | OVCAR-4 3.52 µM | HL-60 3.46 µM | MCF7 3.46 µM | RPMI-8226 4.01 µM | CCRF-CEM 2.07 µM | M14 1.92 µM | A549 5.98 µM | HT-29 3.08 µM | 786-0 1.86 µM | KM12 5.71 µM | MDA-MB-231 2.08 µM | Hs-578T 2.8 µM | TK-10 5.46 µM | DU-145 11.4 µM | NCI/ADR-RES 3.21 µM | SK-MEL-5 8.73 µM | UACC-62 3.13 µM | A498 3.56 µM | SR 3.1 µM | SN12C 3.46 µM | HCC 2998 13 µM | RXF 393 3.16 µM | NCI-H460 2.22 µM | K562 2.42 µM | OVCAR-5 3.78 µM | UO-31 4.91 µM | UACC-257 5.94 µM | Malme-3M 4.1 µM | NCI-H226 20 µM

COC1(OC)CC(CO)(CNc2nc(N)nc(Cl)c2/C=N\O)C1
75.5 µM: HCT-15
inactive: LOX IMVI 22.7 µM | CAKI-1 57.4 µM | SNB-19 40.7 µM | SK-MEL-28 48.9 µM | COLO 205 38.6 µM | OVCAR-8 54.7 µM | MDA-MB-435 31.5 µM | PC-3 55.5 µM | SNB-75 48.8 µM | MDA-N 63.2 µM | SF-268 > 100 µM | BT-549 25.3 µM | HCT-116 50.4 µM | NCI-H23 9.77 µM | SF-539 38.8 µM | IGROV-1 21.3 µM | U-251 43.7 µM | NCI-H522 6.67 µM | HOP-92 13.6 µM | OVCAR-3 21.7 µM | MOLT-4 15.3 µM | HOP-62 23.2 µM | EKVX 22.7 µM | SF-295 33.3 µM | ACHN 24.6 µM | SW-620 > 100 µM | OVCAR-4 29.5 µM | HL-60 39.3 µM | MCF7 24.1 µM | RPMI-8226 13.6 µM | CCRF-CEM 47.1 µM | A549 59.7 µM | HT-29 38.4 µM | 786-0 44.2 µM | KM12 7.05 µM | MDA-MB-231 72.9 µM | Hs-578T 22.7 µM | TK-10 25.9 µM | DU-145 34.3 µM | NCI/ADR-RES 46 µM | SK-MEL-5 43.1 µM | A498 18.5 µM | SR 13.4 µM | SN12C 87.7 µM | HCC 2998 > 100 µM | RXF 393 18.7 µM | NCI-H460 37.4 µM | K562 17.7 µM | OVCAR-5 20.7 µM | UO-31 39.2 µM | UACC-257 27.7 µM | Malme-3M 20.8 µM | NCI-H226 29.6 µM
